Source: article PMC9907135 (Proceedings of the National Academy of Sciences of the …, 2022)
Bridge positions count the residues as written; N and C are the ends. Square brackets hold non-standard residues; d marks the D form. Peptide text beside a SMILES is read from it. R8 = C=CCCCCCC[C@@](C)(N)C(=O)O; S5 = C=CCCC[C@](C)(N)C(=O)O; Nle = CCCC[C@H](N)C(=O)O

Assays:
Expi293 cells [1] = details: percentage of Helicons in cells after treatment and wash; Expi293 cells 1x10^6 cells/mL, 22 hours, 37°C; washed twice with DPBS; MS quantitation, single-point calibration; n=2, mean ± SD
Expi293 cells [2] = details: luminescence at Tfinal (22 hours) divided by Tinitial, measure of ATP levels, reflective of cell health

| SMILES | Helicon in cells ± SD (%) (Expi293 cells [1]) | CellTiter-Glo fold change ± SD (Expi293 cells [2]) |
| --- | --- | --- |
| CC(=O)N[C@@H](CC(C)C)C(=O)N[C@H](C(=O)N[C@@H](Cc1ccccc1)C(=O)N[C@]1(C)CCCCCCC=CCCC[C@@](C)(C(=O)N[C@@H](CO)C(=O)N[C@@H](C)C(=O)N[C@@H](C)C(N)=O)NC(=O)[C@H](CC2CCC2)NC(=O)[C@H](CCC(N)=O)NC(=O)[C@H](C)NC(=O)[C@H](Cc2c[nH]c3ccccc23)NC(=O)[C@H](Cc2ccc(O)cc2)NC(=O)[C@H](CCC(=O)O)NC1=O)[C@@H](C)O [FP01413, reference compound] | 3.7 ± 0.4 | 1.2 ± 0.07 |
| CCCC[C@H](NC(=O)[C@@H](NC(C)=O)C(C)C)C(=O)N[C@@H](CCC(=O)O)C(=O)N[C@]1(C)CCCCCCC=CCCC[C@@](C)(C(=O)N[C@@H](Cc2c[nH]cn2)C(=O)N[C@@H](Cc2ccc(O)cc2)C(=O)N[C@H](C(N)=O)C(C)C)NC(=O)[C@H]([C@@H](C)CC)NC(=O)[C@H](Cc2ccccc2)NC(=O)[C@H](C)NC(=O)[C@H](C)NC(=O)[C@H](CCC(=O)O)NC(=O)[C@H](Cc2ccc(O)cc2)NC1=O [FP07855] (Ac-V[Nle]E[R8]YEAAFI[S5]HYV-NH2; staple 4-11) | 16.4 ± 0.6 | 1.2 ± 0.10 |
| CCCC[C@H](NC(=O)[C@@H](NC(C)=O)C(C)C)C(=O)N[C@@H](CCC(=O)O)C(=O)N[C@]1(C)CCCCCCC=CCCC[C@@](C)(C(=O)N[C@@H](Cc2c[nH]cn2)C(=O)N[C@@H](Cc2ccc(O)cc2)C(=O)N[C@H](C(N)=O)C(C)C)NC(=O)[C@H]([C@@H](C)CC)NC(=O)[C@H](Cc2ccccc2)NC(=O)[C@H](C)NC(=O)[C@H](C)NC(=O)[C@H](CCC(=O)O)NC(=O)[C@H](Cc2ccc(O)cc2)NC1=O [FP07856] (Ac-V[Nle]E[R8]YEAAFI[S5]HYV-NH2; staple 4-11) | 15.5 ± 0.9 | 1.3 ± 0.12 |
| CC[C@H](C)[C@H](NC(C)=O)C(=O)N[C@@H](CC(C)C)C(=O)N[C@@H](CCC(N)=O)C(=O)N[C@]1(C)CCCCCCC=CCCC[C@@](C)(C(=O)N[C@@H](Cc2c[nH]cn2)C(=O)N[C@@H](Cc2ccc(O)cc2)C(=O)N[C@@H](CCC(N)=O)C(N)=O)NC(=O)[C@H](CO)NC(=O)[C@H](Cc2ccccc2)NC(=O)[C@H](C)NC(=O)[C@H](C)NC(=O)[C@H](CCC(=O)O)NC(=O)[C@H](Cc2ccc(O)cc2)NC1=O [FP07859] (Ac-ILQ[R8]YEAAFS[S5]HYQ-NH2; staple 4-11) | 0.1 ± 0.0 | 1.2 ± 0.02 |
| CC[C@H](C)[C@H](NC(C)=O)C(=O)N[C@@H](CC(C)C)C(=O)N[C@@H](CCC(N)=O)C(=O)N[C@]1(C)CCCCCCC=CCCC[C@@](C)(C(=O)N[C@@H](Cc2c[nH]cn2)C(=O)N[C@@H](Cc2ccc(O)cc2)C(=O)N[C@@H](CCC(N)=O)C(N)=O)NC(=O)[C@H](CO)NC(=O)[C@H](Cc2ccccc2)NC(=O)[C@H](C)NC(=O)[C@H](C)NC(=O)[C@H](CCC(=O)O)NC(=O)[C@H](Cc2ccc(O)cc2)NC1=O [FP07860] (Ac-ILQ[R8]YEAAFS[S5]HYQ-NH2; staple 4-11) | 0.3 ± 0.0 | 1.2 ± 0.03 |
| CCCC[C@H](NC(=O)[C@@H](NC(C)=O)C(C)C)C(=O)N[C@@H](CCC(N)=O)C(=O)N[C@]1(C)CCCCCCC=CCCC[C@@](C)(C(=O)N[C@@H](Cc2c[nH]cn2)C(=O)N[C@@H](Cc2ccc(O)cc2)C(=O)N[C@H](C(N)=O)C(C)C)NC(=O)[C@H]([C@@H](C)CC)NC(=O)[C@H](Cc2ccccc2)NC(=O)[C@H](C)NC(=O)[C@H](C)NC(=O)[C@H](CCC(=O)O)NC(=O)[C@H](Cc2ccc(O)cc2)NC1=O [FP07863] (Ac-V[Nle]Q[R8]YEAAFI[S5]HYV-NH2; staple 4-11) | 23.5 ± 6.5 | 1.2 ± 0.02 |
| CCCC[C@H](NC(=O)[C@@H](NC(C)=O)C(C)C)C(=O)N[C@@H](CCC(N)=O)C(=O)N[C@]1(C)CCCCCCC=CCCC[C@@](C)(C(=O)N[C@@H](Cc2c[nH]cn2)C(=O)N[C@@H](Cc2ccc(O)cc2)C(=O)N[C@H](C(N)=O)C(C)C)NC(=O)[C@H]([C@@H](C)CC)NC(=O)[C@H](Cc2ccccc2)NC(=O)[C@H](C)NC(=O)[C@H](C)NC(=O)[C@H](CCC(=O)O)NC(=O)[C@H](Cc2ccc(O)cc2)NC1=O [FP07864] (Ac-V[Nle]Q[R8]YEAAFI[S5]HYV-NH2; staple 4-11) | 18.5 ± 11.4 | 1.1 ± 0.05 |
| CCCC[C@H](NC(=O)[C@@H](NC(C)=O)C(C)C)C(=O)N[C@@H](CCC(=O)O)C(=O)N[C@]1(C)CCCCCCC=CCCC[C@@](C)(C(=O)N[C@@H](Cc2c[nH]cn2)C(=O)N[C@@H](Cc2ccc(O)cc2)C(=O)N[C@H](C(N)=O)C(C)C)NC(=O)[C@H]([C@@H](C)CC)NC(=O)[C@H](Cc2ccccc2)NC(=O)[C@H](C)NC(=O)[C@H](C)NC(=O)[C@H](CCC(N)=O)NC(=O)[C@H](Cc2ccc(O)cc2)NC1=O [FP07867] (Ac-V[Nle]E[R8]YQAAFI[S5]HYV-NH2; staple 4-11) | 8.6 ± 0.4 | 1.2 ± 0.03 |
| CCCC[C@H](NC(=O)[C@@H](NC(C)=O)C(C)C)C(=O)N[C@@H](CCC(=O)O)C(=O)N[C@]1(C)CCCCCCC=CCCC[C@@](C)(C(=O)N[C@@H](Cc2c[nH]cn2)C(=O)N[C@@H](Cc2ccc(O)cc2)C(=O)N[C@H](C(N)=O)C(C)C)NC(=O)[C@H]([C@@H](C)CC)NC(=O)[C@H](Cc2ccccc2)NC(=O)[C@H](C)NC(=O)[C@H](C)NC(=O)[C@H](CCC(N)=O)NC(=O)[C@H](Cc2ccc(O)cc2)NC1=O [FP07868] (Ac-V[Nle]E[R8]YQAAFI[S5]HYV-NH2; staple 4-11) | 10.3 ± 1.4 | 1.2 ± 0.10 |
| CCCC[C@H](NC(=O)[C@@H](NC(C)=O)C(C)C)C(=O)N[C@@H](CCC(N)=O)C(=O)N[C@]1(C)CCCCCCC=CCCC[C@@](C)(C(=O)N[C@@H](Cc2c[nH]cn2)C(=O)N[C@@H](Cc2ccc(O)cc2)C(=O)N[C@H](C(N)=O)C(C)C)NC(=O)[C@H]([C@@H](C)CC)NC(=O)[C@H](Cc2ccccc2)NC(=O)[C@H](C)NC(=O)[C@H](C)NC(=O)[C@H](CCC(N)=O)NC(=O)[C@H](Cc2ccc(O)cc2)NC1=O [FP07871] (Ac-V[Nle]Q[R8]YQAAFI[S5]HYV-NH2; staple 4-11) | 7.0 ± 0.3 | 1.2 ± 0.03 |
| CCCC[C@H](NC(=O)[C@@H](NC(C)=O)C(C)C)C(=O)N[C@@H](CCC(N)=O)C(=O)N[C@]1(C)CCCCCCC=CCCC[C@@](C)(C(=O)N[C@@H](Cc2c[nH]cn2)C(=O)N[C@@H](Cc2ccc(O)cc2)C(=O)N[C@H](C(N)=O)C(C)C)NC(=O)[C@H]([C@@H](C)CC)NC(=O)[C@H](Cc2ccccc2)NC(=O)[C@H](C)NC(=O)[C@H](C)NC(=O)[C@H](CCC(N)=O)NC(=O)[C@H](Cc2ccc(O)cc2)NC1=O [FP07872] (Ac-V[Nle]Q[R8]YQAAFI[S5]HYV-NH2; staple 4-11) | 11.7 ± 1.6 | 1.1 ± 0.02 |
| CC[C@H](C)[C@H](NC(=O)[C@H](Cc1ccc(O)cc1)NC(=O)[C@H](CCC(N)=O)NC(=O)[C@]1(C)CCCC=CCCCCCC[C@@](C)(NC(=O)[C@H](Cc2c[nH]cn2)NC(=O)[C@@H](NC(=O)[C@@H](NC(C)=O)[C@@H](C)CC)[C@@H](C)CC)C(=O)N[C@@H](Cc2ccc(O)cc2)C(=O)N[C@@H](CCC(=O)O)C(=O)N[C@@H](C)C(=O)N[C@@H](C)C(=O)N[C@@H](Cc2ccccc2)C(=O)N[C@@H](Cc2ccccc2)C(=O)N1)C(N)=O [FP08011] (Ac-IIH[R8]YEAAFF[S5]QYI-NH2; staple 4-11) | 6.5 ± 0.5 | 1.2 ± 0.01 |
| CC[C@H](C)[C@H](NC(=O)[C@H](Cc1ccc(O)cc1)NC(=O)[C@H](CCC(N)=O)NC(=O)[C@]1(C)CCCC=CCCCCCC[C@@](C)(NC(=O)[C@H](Cc2c[nH]cn2)NC(=O)[C@@H](NC(=O)[C@@H](NC(C)=O)[C@@H](C)CC)[C@@H](C)CC)C(=O)N[C@@H](Cc2ccc(O)cc2)C(=O)N[C@@H](CCC(=O)O)C(=O)N[C@@H](C)C(=O)N[C@@H](C)C(=O)N[C@@H](Cc2ccccc2)C(=O)N[C@@H](Cc2ccccc2)C(=O)N1)C(N)=O [FP08012] (Ac-IIH[R8]YEAAFF[S5]QYI-NH2; staple 4-11) | 5.4 ± 0.9 | 1.1 ± 0.04 |
| CCCC[C@H](NC(=O)[C@H](Cc1ccc(O)cc1)NC(=O)[C@H](CCC(N)=O)NC(=O)[C@]1(C)CCCC=CCCCCCC[C@@](C)(NC(=O)[C@H](CCC(=O)O)NC(=O)[C@H](CC(C)C)NC(=O)[C@@H](NC(C)=O)[C@@H](C)CC)C(=O)N[C@@H](Cc2ccc(O)cc2)C(=O)N[C@@H](CCC(=O)O)C(=O)N[C@@H](C)C(=O)N[C@@H](C)C(=O)N[C@@H](Cc2ccccc2)C(=O)N[C@@H](CCC(=O)O)C(=O)N1)C(N)=O [FP08017] (Ac-ILE[R8]YEAAFE[S5]QY[Nle]-NH2; staple 4-11) | 0.6 ± 0.1 | 1.2 ± 0.01 |
| CCCC[C@H](NC(=O)[C@H](Cc1ccc(O)cc1)NC(=O)[C@H](CCC(N)=O)NC(=O)[C@]1(C)CCCC=CCCCCCC[C@@](C)(NC(=O)[C@H](CCC(=O)O)NC(=O)[C@H](CC(C)C)NC(=O)[C@@H](NC(C)=O)[C@@H](C)CC)C(=O)N[C@@H](Cc2ccc(O)cc2)C(=O)N[C@@H](CCC(=O)O)C(=O)N[C@@H](C)C(=O)N[C@@H](C)C(=O)N[C@@H](Cc2ccccc2)C(=O)N[C@@H](CCC(=O)O)C(=O)N1)C(N)=O [FP08018] (Ac-ILE[R8]YEAAFE[S5]QY[Nle]-NH2; staple 4-11) | 1.0 ± 0.1 | 1.1 ± 0.05 |
| CCCC[C@H](NC(=O)[C@@H](NC(C)=O)[C@@H](C)CC)C(=O)N[C@@H](C)C(=O)N[C@]1(C)CCCCCCC=CCCC[C@@](C)(C(=O)N[C@@H](CCC(N)=O)C(=O)N[C@@H](Cc2ccc(O)cc2)C(=O)N[C@@H](CC(N)=O)C(N)=O)NC(=O)[C@H](Cc2c[nH]c3ccccc23)NC(=O)[C@H](Cc2ccccc2)NC(=O)[C@H](C)NC(=O)[C@H](C)NC(=O)[C@H](CCC(N)=O)NC(=O)[C@H](Cc2ccc(O)cc2)NC1=O [FP08023] (Ac-I[Nle]A[R8]YQAAFW[S5]QYN-NH2; staple 4-11) | 3.0 ± 0.3 | 1.2 ± 0.03 |
